Values belong to the compound of their own block, whether it stands above or below them.
What was measured:
corneal collagen [1] = assay: Papain digest fluorescence of pig corneal flaps (collagen cross-linking); conditions: for fluorescence of the corneal samples after digestion with papain (excitation 360 nm), compared to controls not exposed to UV: phosphate buffer, UV 365 nm, 30 mW/cm^2, pulsed 1 s on:1 s off, 8 min, oxygen; for fluorescence (relative to untreated controls) recorded at 450 nm: FeSO4 0.5 mM added to 0.1% riboflavin
Procedure: Corneal flaps were soaked in either distilled water or diluted H2O2 (1%) for 20 minutes. Flaps soaked in H2O2 were either rinsed twice with distilled water or removed from H2O2 and placed in 0.1% FeSO4 solution in distilled water for an additional 20 minute soak followed by a 2× rinse with distilled water. Flaps were dried in a vacuum until the weight change became less than 10% (Rotary vane vacuum pump RV3 A652-01-903, BOC Edwards, West Sussex, UK). Each flap was digested for 2.5 hours at 65° C. with 2.5 units/ml of papain (from Papaya latex, Sigma) in 1 ml of papain buffer [EBBS (pH 7.0-7.2), 2 mM L-cysteine and 2 mM EDTA]. Papain digests were centrifuged for 5 seconds at 2200×G (Mini centrifuge 05-090-100, Fisher Scientific), diluted 0.5 times with BBBS and fluorescence of the solutions was measured with excitation of λex=360 nm in a QM-40 Spectrofluorometer (Photon Technology Int., London, Ontario, Canada). The fluorescence of the papain buffer was taken into account by measuring fluorescence in the absence of tissue and subtracting this value from the fluorescence of the samples. […]
(§1) Pig eyes were shipped overnight on ice from an abattoir (SiouxPreme, Sioux City, Iowa), rinsed in saline. Eyes were cleaned and epithelium was removed. […] If specified, eyes were placed in a beaker with a light oxygen stream for 2 minutes in the incubation chamber prior to irradiation. Corneas were pan-corneally irradiated with a top hat beam (3% root mean square) for the chosen time (4 or 8 minutes) with 365-nm light source (UV LED NCSU033B[T]; Nichia Co., Tokushima, Japan) at the chosen irradiance (30 mW/cm^2, pulsed or non-pulsed) which was measured with a power sensor (model PD-300-UV; Ophir, Inc., Jerusalem, Israel) at the corneal surface. Corneal flaps (approximately 200 μm thick) were excised from the eyes with aid of Intralase femtosecond laser (Abbot Medical Optics, Santa Ana, Calif.). The average thickness of the corneal flaps was calculated as a difference between the measurements before and after the excision from the eyes with an ultrasonic Pachymeter (DGH Technology, Exton, Pa.). The flaps were placed into a biaxial extensometer (CellScale Biotester 5000, Waterloo, ON), using biorake attachments with 5 tines spanning a width of 3 mm. Each sample was stretched at a constant rate of 4 μm/s in saline at 37° C. until sample failure. The flaps were washed with distilled water 2 times, dried with filter paper, washed with dH2O two times, and then dried in a vacuum until the weight change became less than 10% (Rotary vane vacuum pump RV3 A652-01-903, BOC Edwards, West Sussex, UK). Each flap was digested for 2.5 hours at 65° C. with 2.5 units/ml of papain (from Papaya latex, Sigma) in 1 ml of papain buffer [BBBS (pH 7.0-7.2), 2 mM L-cysteine and 2 mM EDTA]. Papain digests were centrifuged for 5 seconds at 2200×G (Mini centrifuge 05-090-100, Fisher Scientific), diluted 0.5 times with 1× BBBS and fluorescence of the solutions was measured with excitation of λex=360 nm in a QM-40 Spectrofluorometer (Photon Technology Int., London, Ontario, Canada). The fluorescence of the papain buffer was taken into account by measuring fluorescence in the absence of tissue and subtracting this value from the fluorescence of the samples.
(§2) Oxygen was supplied continuously to the beaker during the time of exposure.
as §2

corneal collagen [2] = assay: Biaxial extensometry (tensiometry) of pig corneal flaps; conditions: for stiffening of corneal sample (displacement vs. force curves), compared to the unexposed controls: phosphate buffer, UV 365 nm, 30 mW/cm^2, pulsed 1 s on:1 s off, 8 min, oxygen; for corneal stiffness (displacement-force diagrams): 1% solution in dH2O
Procedure: as §1, §2
Oxygen was supplied continuously to the beaker during the time of exposure. Corneal flaps were cut at approximately 200 μm.
Pig eyes were shipped overnight on ice from an abattoir (SiouxPreme, Sioux City, Iowa), rinsed in saline. Eyes were cleaned and epithelium was removed. […] Corneas were pan-corneally irradiated with a top hat beam (3% root mean square) for 4 minutes with 365-nm light source (UV LED NCSU033B[T]; Nichia Co., Tokushima, Japan) at irradiance 30 mW/cm^2, which was measured with a power sensor (model PD-300-UV; Ophir, Inc., Jerusalem, Israel) at the corneal surface. Corneal flaps (approximately 200 μm thick) were excised from the eyes with aid of Intralase femtosecond laser (Abbott Medical Optics, Santa Ana, Calif.). The average thickness of the corneal flaps was calculated as a difference between the measurements before and after the excision from the eyes with an ultrasonic Pachymeter (DGH Technology, Exton, Pa.). The flaps were then placed into a biaxial extensometer (CellScale Biotester 5000, Waterloo, ON), using biorake attachments with 5 tines spanning a width of 3 mm. Each sample was stretched at a constant rate of 4 μm/s in saline at 37° C. until sample failure. The flaps were washed with distilled water, dried in a vacuum until the weight change became less than 10% (Rotary vane vacuum pump RV3 A652-01-903, BOC Edwards, West Sussex, UK). Each flap was digested for 2.5 h at 65° C. with 2.5 units/ml of papain (from Papaya latex, Sigma) in 1 ml of papain buffer [EBBS (pH 7.0-7.2), 2 mM L-cysteine and 2 mM EDTA].

corneal collagen [3] = assay: Papain digest fluorescence of pig corneal flaps (collagen cross-linking); conditions: 0.1% in BBBS, de-oxygenated with argon, irradiated 4 min at 30 mW/cm^2 in CO2 atmosphere
human serum albumin = human serum albumin (Homo sapiens, UniProt P02768); conditions: irradiated in the presence of human serum albumin; cited from earlier work
human serum albumin, sequence (P02768 25-609): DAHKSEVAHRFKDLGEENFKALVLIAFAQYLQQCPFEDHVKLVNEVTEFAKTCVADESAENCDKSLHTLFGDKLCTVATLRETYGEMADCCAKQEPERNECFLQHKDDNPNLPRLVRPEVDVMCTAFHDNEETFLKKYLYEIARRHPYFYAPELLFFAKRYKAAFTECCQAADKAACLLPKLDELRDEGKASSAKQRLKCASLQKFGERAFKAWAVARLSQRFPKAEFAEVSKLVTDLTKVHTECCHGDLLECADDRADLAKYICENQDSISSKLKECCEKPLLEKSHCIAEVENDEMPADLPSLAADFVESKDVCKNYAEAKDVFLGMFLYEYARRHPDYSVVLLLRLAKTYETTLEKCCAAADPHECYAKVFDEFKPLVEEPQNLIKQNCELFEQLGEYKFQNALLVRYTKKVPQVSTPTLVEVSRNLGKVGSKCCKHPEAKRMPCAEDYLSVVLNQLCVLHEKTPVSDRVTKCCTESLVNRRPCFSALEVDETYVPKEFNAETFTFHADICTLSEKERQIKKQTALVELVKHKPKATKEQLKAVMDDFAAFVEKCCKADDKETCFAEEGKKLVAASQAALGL

[4] = 0.4% in PBS, UVA 30 mW/cm2, 4 min CW or 8 min pulsed with O2

average force vs. displacement measured by tensiometry (corneal collagen [2]; CW UVA 30 mW/cm^2, 4 min, relative to controls): higher than the control group
stiffening of corneal sample (displacement vs. force curves), compared to the unexposed controls (corneal collagen [2]): significant stiffening
SMILES: Cc1cc2nc3c(=O)[nH]c(=O)nc-3n(C[C@H](O)[C@H](O)[C@H](O)CO)c2cc1C [0.1% riboflavin, riboflavin]
fluorescence of the corneal samples after digestion with papain (excitation 360 nm), compared to controls not exposed to UV (corneal collagen [1]): increases

stiffening of corneal sample (displacement vs. force curves), compared to the unexposed controls (corneal collagen [2]): significant stiffening
SMILES: Nc1nc2ncc(CNc3ccc(C(=O)N[C@@H](CCC(=O)O)C(=O)O)cc3)nc2c(=O)[nH]1 [FA, Folic acid]
fluorescence of the corneal samples after digestion with papain (excitation 360 nm), compared to controls not exposed to UV (corneal collagen [1]): increases

SMILES: O=S(=O)([O-])[O-].[Fe+2] [FeSO4, Iron(II) Sulfate]
fluorescence (relative to untreated controls) recorded at 450 nm (corneal collagen [1]; CW UVA 30 mW/cm^2, 4 min): increase in fluorescence
fluorescence (relative to untreated controls) recorded at 450 nm (corneal collagen [1]; PW+O2, UVA 30 mW/cm^2, 8 min (1 s on:1 s off)): increase in fluorescence
average force vs. displacement measured by tensiometry (biaxial tension) (corneal collagen [2]; PW+O2, UVA 30 mW/cm^2, 8 min (1 s on:1 s off), versus 0.1% riboflavin): increase in biaxial tension

corneal stiffness (displacement-force diagrams) (corneal collagen [2]; with UV light 365 nm, 30 mW for 4 min): increase
corneal stiffness (displacement-force diagrams) (corneal collagen [2]; without UV light): does not cross-link corneal flaps
SMILES: CC(=O)C(C)=O [2,3-butanedione]
fluorescence output (relative to the untreated controls, Fo) recorded at 450 nm (corneal collagen [1]; 1% solution in dH2O, with UV light 365 nm, 30 mW for 4 min): increase
fluorescence (relative to the untreated controls, Fo) recorded at 450 nm (corneal collagen [1]; 1% solution in dH2O, without UV light): does not cross-link corneal flaps

SMILES: OO [H2O2, hydrogen peroxide]
fluorescence counts of papain digested corneal flaps (cross-linking) (corneal collagen [1]; 1% H2O2 soak 20 min, with or without following 0.1% Iron(II) soak 20 min, no UV): not

SMILES: Cc1cc2nc(C(=O)[O-])c(=O)n(C[C@H](O)[C@H](O)[C@H](O)CO)c2cc1C.O.[Na+] [sodium salt of 1,2-Dihydro-6,7-dimethyl-2-keto-1-D-ribityl-3-quinoxalinecarboxylic acid monohydrate]
fluorescence of the digested corneas in the area 450 nm (corneal collagen [1]; 0.1% in BBBS, no epithelium, 20 min soak, 30 mW/cm^2 for 4 min continuous UVA): elevated fluorescence
fluorescence of the digested corneal flaps (excitation 360 nm), compared with riboflavin (corneal collagen [3]): higher than the fluorescence of the corneal flaps cross-linked with riboflavin

SMILES: Cc1c(C(=O)NCCO)[n+]([O-])c2ccccc2[n+]1[O-] [Olaquindox, N-(2-hydroxyethyl)-3-methyl-2-quinoxalinecarboxamide 1,4-dioxide]
relative fluorescence recorded at 450 nm of the cross-linked flaps (corneal collagen [1]; [4]): acquired fluorescence at 450 nm
stiffness by biaxial extensiometry of 200 μm thick corneal flaps (corneal collagen [2]; [4]): became stiffer
time to complete disappearance on irradiation (human serum albumin): ≤ 20 s

— patent US20200046835A1, “Systems, Methods, and Compositions For Cross-Linking Treatments of an Eye” (Avedro, Inc., priority 2014, published 2020)
